Reference: ChEMBL document CHEMBL4507276 (2021)

Tests used:
Settings in all cases: Compound concentration 1000.0 nM
[1] = target: Tyrosine-protein kinase Lck (Homo sapiens) (UniProt P06239)
[2] = target: T1, Activin receptor type-1B (Homo sapiens) (UniProt P36896)
T1 sequence (whole entry): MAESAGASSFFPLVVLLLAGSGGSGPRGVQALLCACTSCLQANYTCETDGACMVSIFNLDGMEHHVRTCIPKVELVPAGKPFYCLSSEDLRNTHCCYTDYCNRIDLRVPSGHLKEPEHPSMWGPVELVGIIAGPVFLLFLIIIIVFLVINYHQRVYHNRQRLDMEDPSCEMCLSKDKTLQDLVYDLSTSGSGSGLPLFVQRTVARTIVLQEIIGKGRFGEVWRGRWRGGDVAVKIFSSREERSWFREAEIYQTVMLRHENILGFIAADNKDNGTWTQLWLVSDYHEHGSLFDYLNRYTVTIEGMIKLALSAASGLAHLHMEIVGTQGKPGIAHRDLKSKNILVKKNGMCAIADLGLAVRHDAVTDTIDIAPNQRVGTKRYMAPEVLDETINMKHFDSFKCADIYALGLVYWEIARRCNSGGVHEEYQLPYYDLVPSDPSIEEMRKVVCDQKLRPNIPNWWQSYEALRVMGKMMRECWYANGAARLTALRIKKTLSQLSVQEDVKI

[3] = target: RAC-beta serine/threonine-protein kinase (Homo sapiens) (UniProt P31751)
RAC-beta serine/threonine-protein kinase (Homo sapiens), sequence (P31751 whole entry): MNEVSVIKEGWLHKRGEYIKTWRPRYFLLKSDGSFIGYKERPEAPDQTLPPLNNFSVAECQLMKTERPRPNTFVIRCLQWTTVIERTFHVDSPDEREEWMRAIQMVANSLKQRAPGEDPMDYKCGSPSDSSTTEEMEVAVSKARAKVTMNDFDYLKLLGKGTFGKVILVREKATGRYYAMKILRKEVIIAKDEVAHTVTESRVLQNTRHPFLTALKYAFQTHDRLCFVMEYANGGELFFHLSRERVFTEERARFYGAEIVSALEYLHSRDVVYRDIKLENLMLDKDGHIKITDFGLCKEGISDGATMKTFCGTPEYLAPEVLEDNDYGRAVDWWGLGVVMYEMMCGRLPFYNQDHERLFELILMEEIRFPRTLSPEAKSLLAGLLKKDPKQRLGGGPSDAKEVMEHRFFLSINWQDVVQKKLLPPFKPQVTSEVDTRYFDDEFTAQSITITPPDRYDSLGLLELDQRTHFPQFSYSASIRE

[4] = target: T2, Mitogen-activated protein kinase 12 (Homo sapiens) (UniProt P53778)
T2 sequence (whole entry): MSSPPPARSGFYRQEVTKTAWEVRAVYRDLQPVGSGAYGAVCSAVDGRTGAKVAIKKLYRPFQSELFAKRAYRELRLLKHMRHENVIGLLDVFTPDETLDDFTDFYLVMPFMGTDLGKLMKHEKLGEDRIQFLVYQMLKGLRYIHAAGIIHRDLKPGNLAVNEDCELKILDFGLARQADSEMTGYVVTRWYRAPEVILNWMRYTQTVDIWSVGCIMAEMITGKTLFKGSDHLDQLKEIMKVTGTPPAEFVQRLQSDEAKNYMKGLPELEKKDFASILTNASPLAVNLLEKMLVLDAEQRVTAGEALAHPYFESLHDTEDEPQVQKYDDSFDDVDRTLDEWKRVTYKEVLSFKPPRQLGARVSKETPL

[5] = target: Interleukin-1 receptor-associated kinase 1 (Homo sapiens) (UniProt P51617)
Interleukin-1 receptor-associated kinase 1 (Homo sapiens), sequence (P51617 whole entry, looked up): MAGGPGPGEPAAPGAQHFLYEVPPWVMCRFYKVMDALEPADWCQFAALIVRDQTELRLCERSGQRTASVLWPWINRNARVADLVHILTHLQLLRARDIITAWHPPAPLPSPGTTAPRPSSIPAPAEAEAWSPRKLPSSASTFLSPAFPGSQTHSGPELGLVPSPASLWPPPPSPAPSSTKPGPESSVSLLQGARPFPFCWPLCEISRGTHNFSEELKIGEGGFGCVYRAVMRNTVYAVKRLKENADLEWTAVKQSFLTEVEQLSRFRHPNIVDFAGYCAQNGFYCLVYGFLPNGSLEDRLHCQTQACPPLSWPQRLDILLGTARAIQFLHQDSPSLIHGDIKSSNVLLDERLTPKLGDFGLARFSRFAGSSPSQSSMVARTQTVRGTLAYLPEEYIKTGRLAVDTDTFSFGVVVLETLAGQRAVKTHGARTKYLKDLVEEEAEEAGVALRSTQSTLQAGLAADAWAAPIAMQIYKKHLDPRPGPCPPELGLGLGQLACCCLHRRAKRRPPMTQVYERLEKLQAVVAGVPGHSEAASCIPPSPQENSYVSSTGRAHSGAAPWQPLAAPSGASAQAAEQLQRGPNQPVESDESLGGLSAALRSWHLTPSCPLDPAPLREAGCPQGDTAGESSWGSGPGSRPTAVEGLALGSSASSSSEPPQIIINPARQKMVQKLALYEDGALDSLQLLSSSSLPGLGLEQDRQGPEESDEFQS

[6] = target: Serine/threonine-protein kinase PLK1 (Homo sapiens) (UniProt P53350)
[7] = tested on: Epidermal growth factor receptor (Homo sapiens), P00533 [L858R]
[8] = target: T3, Inhibitor of nuclear factor kappa-B kinase subunit epsilon (Homo sapiens) (UniProt Q14164)
T3 sequence (whole entry): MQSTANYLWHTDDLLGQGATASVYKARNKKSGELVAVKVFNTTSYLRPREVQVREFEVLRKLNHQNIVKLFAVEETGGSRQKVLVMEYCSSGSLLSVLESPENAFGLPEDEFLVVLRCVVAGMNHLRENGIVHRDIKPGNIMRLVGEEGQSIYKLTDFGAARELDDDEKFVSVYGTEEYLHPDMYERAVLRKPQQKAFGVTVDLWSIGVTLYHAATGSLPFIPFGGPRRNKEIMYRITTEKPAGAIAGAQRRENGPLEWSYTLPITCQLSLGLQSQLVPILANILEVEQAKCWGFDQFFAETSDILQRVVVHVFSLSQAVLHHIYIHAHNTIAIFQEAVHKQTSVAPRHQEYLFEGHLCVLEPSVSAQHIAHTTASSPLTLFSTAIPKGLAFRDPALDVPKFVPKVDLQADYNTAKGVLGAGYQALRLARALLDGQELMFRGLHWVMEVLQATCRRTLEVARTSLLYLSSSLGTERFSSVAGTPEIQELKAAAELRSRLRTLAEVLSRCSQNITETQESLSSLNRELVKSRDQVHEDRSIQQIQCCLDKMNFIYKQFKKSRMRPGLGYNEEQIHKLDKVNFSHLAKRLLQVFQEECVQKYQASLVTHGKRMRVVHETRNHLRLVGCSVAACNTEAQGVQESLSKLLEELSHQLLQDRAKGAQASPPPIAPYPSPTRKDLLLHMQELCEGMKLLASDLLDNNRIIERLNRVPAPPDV

[9] = target: T4, Serine/threonine-protein kinase 17A (Homo sapiens) (UniProt Q9UEE5)
T4 sequence (whole entry): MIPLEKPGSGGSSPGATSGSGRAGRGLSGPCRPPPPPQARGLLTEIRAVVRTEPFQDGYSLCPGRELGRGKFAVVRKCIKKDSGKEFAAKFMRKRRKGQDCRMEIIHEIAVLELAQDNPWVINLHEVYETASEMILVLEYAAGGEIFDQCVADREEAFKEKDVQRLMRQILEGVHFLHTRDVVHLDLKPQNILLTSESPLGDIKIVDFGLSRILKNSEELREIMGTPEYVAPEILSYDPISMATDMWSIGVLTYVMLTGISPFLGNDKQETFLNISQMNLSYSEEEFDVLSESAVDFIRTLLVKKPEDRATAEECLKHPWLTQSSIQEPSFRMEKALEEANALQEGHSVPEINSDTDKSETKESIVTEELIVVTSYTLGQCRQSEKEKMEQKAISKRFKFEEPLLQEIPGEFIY

[10] = target: Protein kinase C eta type (Homo sapiens) (UniProt P24723)
[11] = target: Serine/threonine-protein kinase 24 (Homo sapiens) (UniProt Q9Y6E0)
[12] = target: Serine/threonine-protein kinase STK11 (Homo sapiens) (UniProt Q15831)
Serine/threonine-protein kinase STK11 (Homo sapiens), sequence (Q15831 whole entry): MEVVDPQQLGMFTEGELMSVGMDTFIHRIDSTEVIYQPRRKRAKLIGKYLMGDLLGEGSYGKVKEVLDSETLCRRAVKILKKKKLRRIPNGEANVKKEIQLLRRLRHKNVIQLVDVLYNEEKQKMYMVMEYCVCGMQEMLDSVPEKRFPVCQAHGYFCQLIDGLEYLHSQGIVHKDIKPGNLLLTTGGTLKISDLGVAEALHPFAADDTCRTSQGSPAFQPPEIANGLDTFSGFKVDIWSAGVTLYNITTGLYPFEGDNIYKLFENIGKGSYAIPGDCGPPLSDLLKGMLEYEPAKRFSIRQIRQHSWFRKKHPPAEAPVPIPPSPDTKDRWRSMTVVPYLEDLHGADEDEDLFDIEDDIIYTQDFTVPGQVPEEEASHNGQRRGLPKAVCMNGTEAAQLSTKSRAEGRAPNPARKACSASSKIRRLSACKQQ

[13] = target: Serine/threonine-protein kinase Nek3 (Homo sapiens) (UniProt P51956)
Serine/threonine-protein kinase Nek3 (Homo sapiens), sequence (P51956 whole entry, canonical isoform): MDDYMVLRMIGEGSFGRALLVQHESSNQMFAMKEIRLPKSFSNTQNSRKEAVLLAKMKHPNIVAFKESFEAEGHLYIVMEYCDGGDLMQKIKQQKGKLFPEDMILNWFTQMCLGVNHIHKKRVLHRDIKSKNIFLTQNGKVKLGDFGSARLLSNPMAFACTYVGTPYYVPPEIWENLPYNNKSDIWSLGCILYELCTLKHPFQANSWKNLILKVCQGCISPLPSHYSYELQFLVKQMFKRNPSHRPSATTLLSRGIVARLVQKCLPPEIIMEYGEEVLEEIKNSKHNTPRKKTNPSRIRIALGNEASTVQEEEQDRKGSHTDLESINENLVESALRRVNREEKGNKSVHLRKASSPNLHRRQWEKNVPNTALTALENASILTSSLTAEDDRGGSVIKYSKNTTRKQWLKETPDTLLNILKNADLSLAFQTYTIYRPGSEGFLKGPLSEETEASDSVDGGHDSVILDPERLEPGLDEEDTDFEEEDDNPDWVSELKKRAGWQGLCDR

[14] = tested on: Phosphatidylinositol 4,5-bisphosphate 3-kinase catalytic subunit alpha isoform (Homo sapiens), P42336 [M1043I]
[15] = target: Serine/threonine-protein kinase Nek6 (Homo sapiens) (UniProt Q9HC98)
Serine/threonine-protein kinase Nek6 (Homo sapiens), sequence (Q9HC98 whole entry): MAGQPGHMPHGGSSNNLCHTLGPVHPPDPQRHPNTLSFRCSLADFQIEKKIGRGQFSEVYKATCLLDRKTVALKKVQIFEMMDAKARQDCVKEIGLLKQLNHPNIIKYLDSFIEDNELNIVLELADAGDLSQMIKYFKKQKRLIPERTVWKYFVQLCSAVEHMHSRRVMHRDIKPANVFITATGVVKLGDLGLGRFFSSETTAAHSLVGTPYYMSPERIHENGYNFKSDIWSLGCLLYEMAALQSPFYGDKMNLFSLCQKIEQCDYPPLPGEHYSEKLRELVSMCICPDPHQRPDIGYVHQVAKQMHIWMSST

[16] = target: Serine/threonine-protein kinase 17B (Homo sapiens) (UniProt O94768)
Serine/threonine-protein kinase 17B (Homo sapiens), sequence (O94768 whole entry): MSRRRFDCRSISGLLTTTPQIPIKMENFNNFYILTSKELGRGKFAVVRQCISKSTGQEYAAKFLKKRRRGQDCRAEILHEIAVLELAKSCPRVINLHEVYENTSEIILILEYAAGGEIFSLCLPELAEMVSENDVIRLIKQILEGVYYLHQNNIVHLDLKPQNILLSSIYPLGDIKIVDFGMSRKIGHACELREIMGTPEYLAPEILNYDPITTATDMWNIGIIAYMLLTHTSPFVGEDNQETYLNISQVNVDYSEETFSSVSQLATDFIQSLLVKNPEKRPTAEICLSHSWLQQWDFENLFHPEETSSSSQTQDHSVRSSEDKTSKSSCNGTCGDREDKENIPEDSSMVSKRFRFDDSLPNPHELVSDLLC

[17] = tested on: Mast/stem cell growth factor receptor Kit (Homo sapiens), P10721 [V559D]
Mast/stem cell growth factor receptor Kit (Homo sapiens), P10721 [V559D], sequence (P10721 whole entry V559D): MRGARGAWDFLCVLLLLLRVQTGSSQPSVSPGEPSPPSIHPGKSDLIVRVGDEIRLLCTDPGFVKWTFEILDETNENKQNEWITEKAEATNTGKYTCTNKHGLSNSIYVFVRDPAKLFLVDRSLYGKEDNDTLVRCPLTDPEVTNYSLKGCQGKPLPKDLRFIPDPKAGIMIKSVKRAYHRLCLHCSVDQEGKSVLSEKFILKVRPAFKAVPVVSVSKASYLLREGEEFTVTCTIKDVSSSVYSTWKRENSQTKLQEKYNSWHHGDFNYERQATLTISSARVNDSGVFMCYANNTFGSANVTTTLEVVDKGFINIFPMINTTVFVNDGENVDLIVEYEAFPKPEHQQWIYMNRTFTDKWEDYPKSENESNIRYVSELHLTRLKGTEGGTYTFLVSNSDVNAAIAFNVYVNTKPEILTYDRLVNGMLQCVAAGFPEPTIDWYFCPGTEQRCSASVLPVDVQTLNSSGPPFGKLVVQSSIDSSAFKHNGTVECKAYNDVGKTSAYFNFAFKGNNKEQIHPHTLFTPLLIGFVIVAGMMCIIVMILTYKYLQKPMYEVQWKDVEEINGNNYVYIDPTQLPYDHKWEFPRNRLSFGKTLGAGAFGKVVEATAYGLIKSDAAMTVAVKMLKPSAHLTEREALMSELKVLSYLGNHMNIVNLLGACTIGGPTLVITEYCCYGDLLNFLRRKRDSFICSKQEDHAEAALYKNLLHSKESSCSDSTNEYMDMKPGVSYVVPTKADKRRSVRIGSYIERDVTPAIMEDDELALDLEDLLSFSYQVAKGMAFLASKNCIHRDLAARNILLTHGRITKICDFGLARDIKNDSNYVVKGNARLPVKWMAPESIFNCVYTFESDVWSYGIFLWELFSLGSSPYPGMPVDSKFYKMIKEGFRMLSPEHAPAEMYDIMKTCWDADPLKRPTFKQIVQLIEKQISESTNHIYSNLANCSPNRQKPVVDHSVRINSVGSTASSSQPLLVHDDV

[18] = target: Dual specificity mitogen-activated protein kinase kinase 2 (Homo sapiens) (UniProt P36507)
Dual specificity mitogen-activated protein kinase kinase 2 (Homo sapiens), sequence (P36507 whole entry): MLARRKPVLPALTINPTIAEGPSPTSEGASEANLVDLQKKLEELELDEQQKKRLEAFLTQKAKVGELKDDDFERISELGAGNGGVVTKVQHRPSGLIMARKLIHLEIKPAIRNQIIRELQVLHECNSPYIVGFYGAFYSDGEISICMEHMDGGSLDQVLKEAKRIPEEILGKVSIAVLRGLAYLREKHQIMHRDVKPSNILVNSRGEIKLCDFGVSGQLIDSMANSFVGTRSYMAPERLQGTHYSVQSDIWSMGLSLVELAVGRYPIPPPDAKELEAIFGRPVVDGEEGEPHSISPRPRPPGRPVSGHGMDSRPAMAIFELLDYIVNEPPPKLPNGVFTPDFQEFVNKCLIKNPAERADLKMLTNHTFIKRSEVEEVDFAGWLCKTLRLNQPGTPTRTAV

Measured: residual activity

Tyrosine-protein kinase Lck (Homo sapiens), sequence (P06239 2-509 limits assumed): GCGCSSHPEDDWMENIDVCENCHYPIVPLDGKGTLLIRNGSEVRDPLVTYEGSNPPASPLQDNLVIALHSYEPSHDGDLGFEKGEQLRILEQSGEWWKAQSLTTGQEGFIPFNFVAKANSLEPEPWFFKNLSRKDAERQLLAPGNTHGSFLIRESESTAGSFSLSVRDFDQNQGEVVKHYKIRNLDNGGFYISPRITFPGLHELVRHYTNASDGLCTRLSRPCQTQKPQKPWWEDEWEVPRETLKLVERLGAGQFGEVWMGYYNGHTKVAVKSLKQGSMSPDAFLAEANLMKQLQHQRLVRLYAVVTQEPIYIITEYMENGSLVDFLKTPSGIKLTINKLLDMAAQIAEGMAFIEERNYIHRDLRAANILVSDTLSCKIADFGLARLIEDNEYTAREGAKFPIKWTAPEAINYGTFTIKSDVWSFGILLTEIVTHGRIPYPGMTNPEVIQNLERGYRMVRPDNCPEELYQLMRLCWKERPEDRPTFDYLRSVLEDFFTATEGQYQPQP

CN(C)C(=O)Cn1cc(-c2nc(C3(c4ccc(-c5cnc(N)nc5)cc4)CC3)no2)cn1 [BI 0153]
inactive: [1] 83% | [2] 84% | [3] 100% | [4] 62% | [5] 77% | [6] 82% | [7] 86% | [8] 57% | [9] 100% | [10] 91% | [11] 100% | [12] 100% | [13] 57% | [14] 100% | [15] 81% | [16] 100% | [17] 100% | [18] 80%

CN(C)C(=O)Cn1cc(-c2nc([C@@](C)(c3ccc(-c4cnc(N)nc4)cc3)C3CC3)no2)cn1 [BI 665915]
inactive: [1] 86% | [2] 89% | [3] 84% | [4] 94% | [5] 85% | [6] 77% | [7] 100% | [8] 86% | [9] 100% | [10] 100% | [11] 100% | [12] 77% | [13] 87% | [14] 100% | [15] 100% | [16] 88% | [17] 91% | [18] 86%
